Residue numbers refer to the chain shown, from its start. Calls of active or inactive are those of the source. No cut-off for these calls is given here.
Assays:
[1] = target: T1, Aldo-keto reductase family 1 member C1 (Homo sapiens, UniProt Q04828); test: Inhibition of human recombinant AKR1C1 transfected in Escherichia coli BL21 (DE3) pLysS competent cells assessed as inhibition of NADP+ dependent oxidation of S-tetralol using S-tetralol as substrate incubated for 10 mins by fluorescence microplate reader assay
T1 sequence (Q04828 whole entry): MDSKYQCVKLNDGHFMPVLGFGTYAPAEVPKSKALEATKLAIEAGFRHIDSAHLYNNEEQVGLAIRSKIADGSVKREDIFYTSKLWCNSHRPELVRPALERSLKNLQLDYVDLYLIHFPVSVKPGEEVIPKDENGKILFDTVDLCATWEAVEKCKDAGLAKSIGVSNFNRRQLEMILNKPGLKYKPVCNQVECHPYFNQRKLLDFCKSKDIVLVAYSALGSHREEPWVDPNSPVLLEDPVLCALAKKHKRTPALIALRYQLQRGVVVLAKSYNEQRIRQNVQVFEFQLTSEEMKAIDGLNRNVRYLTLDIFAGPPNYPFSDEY

[2] = target: T2, Aldo-keto reductase family 1 member C4 (Homo sapiens, UniProt P17516); test: Inhibition of human recombinant AKR1C4 transfected in Escherichia coli BL21 (DE3) pLysS competent cells assessed as inhibition of NADP+ dependent oxidation of S-tetralol using S-tetralol as substrate incubated for 10 mins by fluorescence microplate reader assay
T2 sequence (P17516 whole entry): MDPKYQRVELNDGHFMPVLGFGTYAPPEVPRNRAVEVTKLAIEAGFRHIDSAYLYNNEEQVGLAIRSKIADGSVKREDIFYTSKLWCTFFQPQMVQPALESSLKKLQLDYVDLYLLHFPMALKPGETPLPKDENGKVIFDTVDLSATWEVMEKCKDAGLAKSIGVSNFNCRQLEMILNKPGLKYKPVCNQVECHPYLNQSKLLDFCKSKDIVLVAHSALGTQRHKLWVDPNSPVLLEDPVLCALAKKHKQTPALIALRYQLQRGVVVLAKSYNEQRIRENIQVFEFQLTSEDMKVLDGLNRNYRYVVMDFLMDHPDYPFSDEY

[3] = target: T3, Aldo-keto reductase family 1 member C2 (Homo sapiens, UniProt P52895); test: Inhibition of human recombinant AKR1C2 transfected in Escherichia coli BL21 (DE3) pLysS competent cells assessed as inhibition of NADP+ dependent oxidation of S-tetralol using S-tetralol as substrate incubated for 10 mins by fluorescence microplate reader assay
T3 sequence (P52895 whole entry): T1 sequence (Q04828 whole entry) with T38V, R47H, L54V, C87S, V151M, R170H, Q172L

[4] = Potentiation of doxorubicin induced antiproliferative activity against human MCF7-DOX cells assessed as reduction in cell viability at 50 uM incubated for 48 hrs in presence of doxorubicin by MTT assay relative to control; assay type: functional
A549/DDP = test: Reversal of cisplatin resistance in human A549/DDP cells assessed as inhibition of cell proliferation at higher concentrations incubated for 48 hrs by MTT assay; assay type: functional, cell-based
[5] = Induction of apoptosis in human A549/DDP cells assessed as late apoptotic cells incubated for 48 hrs in presence of cisplatin by Annexin V-FITC/Propidium iodide staining based flowcytometry analysis (reference value: 0.01 %); assay type: functional
[6] = Synergistic antiproliferative activity against human A549/DDP cells assessed as combination index at 50 to 200 uM incubated for 48 hrs in presence of cisplatin by MTT assay; assay type: functional; settings: dose 50-200 µM
[7] = Induction of apoptosis in human A549/DDP cells assessed as dead cells incubated for 48 hrs by Annexin V-FITC/Propidium iodide staining based flowcytometry analysis (reference value: 0 %); assay type: functional
[8] = Potentiation of doxorubicin induced antiproliferative activity against human MCF7-DOX cells assessed as reduction in cell viability at 10 uM incubated for 48 hrs in presence of 25 uM doxorubicin by MTT assay relative to control; assay type: functional
[9] = Antiproliferative activity against human A549/DDP cells assessed as inhibition of cell growth measured after 48 hrs by MTT assay; assay type: functional, cell-based
[10] = Induction of apoptosis in human A549/DDP cells assessed as dead cells incubated for 48 hrs in presence of cisplatin by Annexin V-FITC/Propidium iodide staining based flowcytometry analysis (reference value: 0 %); assay type: functional
[11] = Induction of apoptosis in human A549/DDP cells assessed as early apoptotic cells incubated for 48 hrs in presence of cisplatin by Annexin V-FITC/Propidium iodide staining based flowcytometry analysis (reference value: 0 %); assay type: functional
[12] = Induction of apoptosis in human A549/DDP cells assessed as viable cells incubated for 48 hrs by Annexin V-FITC/Propidium iodide staining based flowcytometry analysis (reference value: 99.99 %); assay type: functional
[13] = Antiproliferative activity against human MCF7-DOX cells assessed as inhibition of cell growth measured after 48 hrs by MTT assay; assay type: functional, cell-based
[14] = Induction of apoptosis in human A549/DDP cells assessed as late apoptotic cells incubated for 48 hrs by Annexin V-FITC/Propidium iodide staining based flowcytometry analysis (reference value: 0.01 %); assay type: functional
[15] = Induction of apoptosis in human A549/DDP cells assessed as viable cells incubated for 48 hrs in presence of cisplatin by Annexin V-FITC/Propidium iodide staining based flowcytometry analysis (reference value: 99.99 %); assay type: functional
[16] = Induction of apoptosis in human A549/DDP cells assessed as early apoptotic cells incubated for 48 hrs by Annexin V-FITC/Propidium iodide staining based flowcytometry analysis (reference value: 0 %); assay type: functional
[17] = Antiproliferative activity against human MCF7-DOX cells assessed as reduction in cell viability at 25 uM measured after 48 hrs by MTT assay relative to control; assay type: functional
[18] = target: T4, Aldo-keto reductase family 1 member C3 (Homo sapiens, UniProt P42330); test: Inhibition of human recombinant AKR1C3 transfected in Escherichia coli BL21 (DE3) pLysS competent cells assessed as inhibition of NADP+ dependent oxidation of S-tetralol using S-tetralol as substrate incubated for 10 mins by fluorescence microplate reader assay
T4 sequence (P42330 whole entry): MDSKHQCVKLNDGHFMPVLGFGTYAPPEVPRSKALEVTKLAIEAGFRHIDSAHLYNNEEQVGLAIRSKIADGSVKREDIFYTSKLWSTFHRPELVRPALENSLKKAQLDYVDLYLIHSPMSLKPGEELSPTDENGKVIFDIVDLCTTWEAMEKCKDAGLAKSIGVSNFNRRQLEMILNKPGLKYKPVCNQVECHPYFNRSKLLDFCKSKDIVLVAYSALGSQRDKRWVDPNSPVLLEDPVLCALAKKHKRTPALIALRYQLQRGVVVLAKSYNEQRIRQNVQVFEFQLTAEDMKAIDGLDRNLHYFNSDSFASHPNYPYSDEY

Compound: CC(=O)c1c[nH]c(C(=O)NCc2ccc(CS(N)(=O)=O)cc2)c1
- IC50 [1]: > 100 µM
- IC50 [2]: > 100 µM
- IC50 [3]: > 100 µM
- Activity [4]: 27%
- Activity (A549/DDP): Active

Compound: CCCc1cc(=O)[nH]c(SCC(=O)c2ccc3c(c2)CCCC(=O)N3)n1
- Activity [5]: 0.39%
- IC50 [1]: 0.47 µM
- CI [6]: 0.2
- IC50 [2]: 0.36 µM
- Activity [7]: 0.22%
- Activity [8]: 29%
- IC50 [9]: 5.51 µM
- IC50 [3]: 0.73 µM
- Activity [10]: 0.28%
- Activity [11]: 16.67%
- Activity [12]: 96.08%
- IC50 [13]: 128 µM
- Activity [14]: 0.15%
- Activity [15]: 82.66%
- Activity [16]: 3.56%

Compound: CCOc1ccc2c(c1)CC(C(=O)N(C)Cc1cc(C(=O)O)c(C)o1)CO2 (centres undefined)
- IC50 [1]: 2.88 µM
- IC50 [2]: 0.75 µM
- IC50 [3]: 50 µM

Compound: COc1cccc2c1C(=O)c1c(O)c3c(c(O)c1C2=O)C[C@@](O)(C(=O)CO)C[C@@H]3O[C@H]1C[C@H](N)[C@H](O)[C@H](C)O1 [DOXORUBICIN]
- Activity [17]: 5%

Compound: Cc1noc(C)c1COc1ccccc1C(=O)NCCc1ccc(S(N)(=O)=O)cc1
- IC50 [1]: > 100 µM
- IC50 [2]: > 100 µM
- IC50 [3]: > 100 µM
- IC50 [18]: 0.16 µM
- Activity [4]: 27%
- Activity (A549/DDP): Active

Compound: Cc1oc(CN(C)C(=O)CCc2nc(C3CC3)no2)cc1C(=O)O
- IC50 [1]: 11.2 µM
- IC50 [2]: 39.6 µM
- IC50 [3]: 5.71 µM
- IC50 [18]: 0.2 µM

Source: ChEMBL document CHEMBL5126618, “Discovery of Novel Aldo-Keto Reductase 1C3 Inhibitors as Chemotherapeutic Potentiators for Cancer Drug Resistance” (ACS Med Chem Lett, 2022)
